This is an account of results in patent publication US20260022143A1, “Cyclic Peptide Inhibitors of IL-23” (JANSSEN PHARMACEUTICA NV, priority 2022, published 2026).

Positions of bridges follow the written chain, without caps; N, C: chain ends. Non-standard residues stand in square brackets, D forms with d. Residues, ends and D or L forms follow the SMILES beside them. Trp(7-Me) = Cc1cccc2c(C[C@H](N)C(=O)O)c[nH]c12; 2Nal = N[C@@H](Cc1ccc2ccccc2c1)C(=O)O; AEF = NCCOc1ccc(C[C@H](N)C(=O)O)cc1; dNMeY = CN[C@H](Cc1ccc(O)cc1)C(=O)O; Pen = CC(C)(S)[C@H](N)C(=O)O; αMeK = C[C@](N)(CCCCN)C(=O)O

The first series is described as follows: Exposed Polar Surface Area (EPSA). It counts as physicochemical. Particulars: SFC on Chirex 3014 column; sample 1 mM DMSO stock. The text has this: Exposed Polar Surface Area (EPSA) is an experimental descriptor of molecular polarity obtained from chromatographic retention in supercritical fluid chromatography (SFC).
The stationary phase (Chirex 3014(S)-valine and (R)-1-(alpha-naphthyl) ethylamine) was selected for its balance of lipophilic and polar attributes and its capacity to separate compounds with wide polarity differences. The mobile phase consists of methanol (+Ammonium formate) and CO2. Polar compounds are retained stronger under these conditions and a low-slope gradient of methanol achieves elution based on increasing polarity of the mobile phase. Results are normalized using calibration standards generating a linear relationship between retention times and EPSA values. The unit of EPSA is Å^2.
Along with the measurement of compounds of interest, a series of 8 calibration standards (see Materials) are analyzed generating a linear relationship between retention times and EPSA value. The 8 compounds used as calibration standard have their own EPSA value defined by G. Goetz based on the comparison with TPSA (see G. Goetz, L. Philippe and M. Shapiro, “EPSA: A novel supercritical fluid chromatography technique enabling the design of permeable cyclic peptides,” ACS Med. Chem. Lett., vol. 5, pp. 1167-1172, 2014 for more information). The slope from the linear relationship between EPSA values of these eight compounds and their retention times is used to determine the EPSA value of each compound of interest that's measured under the same condition using the equation as below: […]
The mixture of calibrations standard is reinjected every 20 compounds to validate the stability of the retention time.
The mobile phase modifier consists of ammonium formate LC_MS grade (>99%) (CAS number 540-69-2) diluted to 20 mM in HPLC grade Methanol (MeOH, CAS number 67-56-1) and liquid C02 SFC grade (CAS number 124-38-9).
Antipyrine (CAS number: 60-80-0) Chlorpromazine hydrochloride (CAS number: 69-09-0), desipramine hydrochloride (CAS number: […]), pindolol (CAS Number: 13523-86-9), diclofenac (CAS number: 15307-79-6)), m-nitro benzoic acid (CAS number: 121-92-6), bumetanide (CAS number: 28395-03-1), furosemide (CAS number: 54-31-9) were purchased from Sigma Aldrich (Steihneim, Germany).
All analyses were performed on a ultra performance convergence chromatography (UPC™) apparatus (Waters, Milford, MA, USA) equipped with a sample manager, a binary solvent delivery pump (BSM), a column manager, a convergence manager (automated back pressure regulator), a photo diode array detector (DAD) with a high pressure flow cell, and a mass detector simple quadrupole QDa. After the UV detector, the effluent of the SFC was mixed with an eluent consist of mixture MeOH/water (+0.3% Ammonia) 95/5 delivered by a make up pump with a flow rate of 0.4 mL/min and then split to the QDa using a splitter. The instrument was controlled, and data were processed with Masslynx 4.1.
The Analyses were performed using a 4.6×50 mm Chirex 3014(S)-valine and (R)-1-(alpha- naphthyl) ethylamine column (Phenomenex, Le Pecq, France) with 5 um particle and 100A pore size. The flow rate was 4 mL/min with the outlet pressure set to 14 MPa. The injection volume was 2 μL. the mobile phase composition was varied from 5% to 60% modifier at 20%/ min in a linear gradient, holding at 60% for 1.45 min and reverting to the original 5% until the end of the run. Data are acquired during 5 min. An equilibration time of 1 min is applied between 2 injections resulting in an injection every 6 min. each sample is analyzed in duplicate, resulting in a sample to sample turnaround time of 12 min.
The column temperature was set to 35° C. The mass detector was used in full scan from 100 to 800 for small molecules and from 500 to 1200 for peptides.
Each sample is delivered by compound logistics from DMSO stock solution without dilution. The concentration is 1 mM and the volume is 60 μL.
Consider `CC(=O)N(C)CCCC[C@@H]1NC(=O)[C@H](Cc2c[nH]c3c(C)cccc23)NC(=O)[C@H]([C@@H](C)O)NC(=O)[C@H](CC(=O)N(C)C)NC(=O)[C@@H](NC(=O)CCOCCOCC[N+](C)(C)C)C(C)(C)SSC(C)(C)[C@@H](C(=O)N[C@@H](Cc2ccc(OCCN)cc2)C(=O)N[C@@H](Cc2ccc3ccccc3c2)C(=O)NC2(C(=O)N[C@@H](CCN(C)C(C)=O)C(=O)N[C@@H](CC(N)=O)C(=O)N[C@@H](Cc3cccnc3)C(=O)N(C)CC(=O)N(C)C)CCC(F)(F)C2)NC1=O` (single isomer, unassigned) [compound 180, cPEG3aCO-Pen(3)-N(N(Me)2)-T-7MeW-K(NMeAc)-Pen(3)-AEF-2Nal-diFCpx-Dab(NMeAc)-N-3Pya-Sar-CON(Me)2], for which the EPSA is listed as 150.1 Å^2.
With `CC(=O)N(C)CCCC[C@@H]1NC(=O)[C@H](Cc2c[nH]c3c(C)cccc23)NC(=O)[C@H]([C@@H](C)O)NC(=O)[C@H](CC(=O)N(C)C)NC(=O)[C@@H](NC(=O)CCOCCOCC[N+](C)(C)C)C(C)(C)SSC(C)(C)[C@@H](C(=O)N[C@@H](Cc2ccc(OCC3CCC([N+](C)(C)C)CC3)cc2)C(=O)N[C@@H](Cc2ccc3ccccc3c2)C(=O)NC2(C(=O)N[C@@H](CCCCN(C)C(C)=O)C(=O)N[C@@H](CC(N)=O)C(=O)N[C@@H](Cc3cccnc3)C(=O)N(C)CC(=O)N(C)C)CCOCC2)NC1=O` (single isomer, unassigned) [compound 222, cPEG3aCO-Pen(3)-N(N(Me)2)-T-7MeW-K(NMeAc)-Pen(3)-ACHMF-2Nal-THP-K(NMeAc)-N-3Pya-Sar-CON(Me)2], the EPSA was found to be 142.87 Å^2.

Still in this series, the particulars now being: SFC on Chirex 3014 column; sample 1 mM DMSO stock; read-out: EPSA.
Regarding `CC(=O)N(C)CCCC[C@@H]1NC(=O)[C@H](Cc2c[nH]c3c(C)cccc23)NC(=O)[C@H]([C@@H](C)O)NC(=O)[C@H](CC(=O)N(C)C)NC(=O)[C@@H](NC(=O)CCOCCOCC[N+](C)(C)C)C(C)(C)SSC(C)(C)[C@@H](C(=O)N[C@@H](Cc2ccc(OCC3CCC([N+](C)(C)C)CC3)cc2)C(=O)N[C@@H](Cc2ccc3ccccc3c2)C(=O)NC2(C(=O)N[C@@H](CCCCN(C)C(C)=O)C(=O)N[C@@H](CC(N)=O)C(=O)N[C@@H](Cc3cccnc3)C(=O)N(C)CC(=O)N(C)C)CCOCC2)NC1=O` (single isomer, unassigned) [compound 210, cPEG3aCO-Pen(3)-N(N(Me)2)-T-7MeW-K(NMeAc)-Pen(3)-ACHMF-2Nal-THP-K(NMeAc)-N-3Pya-Sar-CON(Me)2], the EPSA was determined as 145 A^2.
Still for that read-out and setting: then `CC(=O)NCCCC[C@@H]1NC(=O)[C@H](Cc2c[nH]c3c(C)cccc23)NC(=O)[C@H]([C@@H](C)O)NC(=O)[C@H](CC(N)=O)NC(=O)[C@@H](NC(C)=O)C(C)(C)SSC(C)(C)[C@@H](C(=O)N[C@@H](Cc2ccc(OCC3CCC([N+](C)(C)C)CC3)cc2)C(=O)N[C@@H](Cc2ccc3ccccc3c2)C(=O)NC2(C(=O)N[C@@H](CCCCNC(C)=O)C(=O)N[C@@H](CC(N)=O)C(=O)N[C@@H](Cc3cccnc3)C(=O)N(C)CC(N)=O)CCOCC2)NC1=O` (single isomer, unassigned) [compound 530, MeCO-Pen(3)-N-T-7MeW-K(Ac)-Pen(3)-ACHMF(S*, S*)-2Nal-THP-K(Ac)-N-3Pya-Sar-CONH2], with 166 A^2.
The same measure, in the same setting: then `CC(=O)NCCCC[C@@H]1NC(=O)[C@H](Cc2c[nH]c3c(C)cccc23)NC(=O)[C@H]([C@@H](C)O)NC(=O)[C@H](CC(N)=O)NC(=O)[C@@H](NC(C)=O)C(C)(C)SSC(C)(C)[C@@H](C(=O)N[C@@H](Cc2ccc(OCCN)cc2)C(=O)N[C@@H](Cc2ccc3ccccc3c2)C(=O)NC2(C(=O)N[C@@H](CCC(=O)O)C(=O)N[C@@H](CC(N)=O)C(=O)N[C@@H](Cc3cccnc3)C(=O)N(C)CC(=O)N3CCOCC3)CCOCC2)NC1=O` [SEQ ID 112, MeCO-Pen(3)—N-T-7MeW—K(Ac)-Pen(3)-AEF-2Nal-THIP-E-N-3Pya-Sar-COMor], with 169 A^2; and `CC(=O)NCCCC[C@@H]1NC(=O)[C@H](Cc2c[nH]c3c(C)cccc23)NC(=O)[C@H]([C@@H](C)O)NC(=O)[C@H](CC(N)=O)NC(=O)[C@@H](NC(C)=O)C(C)(C)SSC(C)(C)[C@@H](C(=O)N[C@@H](Cc2ccc(OCCN)cc2)C(=O)N[C@@H](Cc2ccc3ccccc3c2)C(=O)N[C@@](C)(CCCCN)C(=O)N[C@H](CCCCNC(C)=O)C(=O)N[C@@H](CC(N)=O)C(=O)N[C@H](CCCCN)C(=O)N(C)[C@H](Cc2ccc(O)cc2)C(N)=O)NC1=O` [compound 5, MeCO-Pen(3)-N-T-7MeW-K(Ac)-Pen(3)-AEF-2Nal-aMeK-k(Ac)-N-dK-NMeDTyr-CONH2] (Ac-[Pen]NT[Trp(7-Me)]K(Ac)[Pen][AEF][2Nal][αMeK][dK](Ac)N[dK][dNMeY]-NH2; disulfide 1-6), with 168 A^2.
Still for that read-out and setting: then `CC(=O)NCCCC[C@@H]1NC(=O)[C@H](Cc2c[nH]c3c(C)cccc23)NC(=O)[C@H]([C@@H](C)O)NC(=O)[C@H](CC(N)=O)NC(=O)[C@@H](NC(C)=O)C(C)(C)SSC(C)(C)[C@@H](C(=O)N[C@@H](Cc2ccc(OCCN)cc2)C(=O)N[C@@H](Cc2ccc3ccccc3c2)C(=O)N[C@@](C)(CCCCN)C(=O)N[C@@H](CCCCNC(C)=O)C(=O)N[C@@H](CC(N)=O)C(=O)N[C@@H](Cc2ccccc2)C(=O)N(C)[C@H](Cc2ccc(O)cc2)C(N)=O)NC1=O` [compound 7, MeCO-Pen(3)-N-T-7MeW-K(Ac)-Pen(3)-AEF-2Nal-aMeK-K(Ac)-N-F-NMeDTyr-CONH2] (Ac-[Pen]NT[Trp(7-Me)]K(Ac)[Pen][AEF][2Nal][αMeK]K(Ac)NF[dNMeY]-NH2; disulfide 1-6), with 170 A^2; and `CC(=O)NCCCC[C@@H]1NC(=O)[C@H](Cc2c[nH]c3c(C)cccc23)NC(=O)[C@H]([C@@H](C)O)NC(=O)[C@H](CC(N)=O)NC(=O)[C@@H](NC(C)=O)C(C)(C)SSC(C)(C)[C@@H](C(=O)N[C@@H](Cc2ccc(OCCN)cc2)C(=O)N[C@@H](Cc2ccc3ccccc3c2)C(=O)N[C@@](C)(CCCCN)C(=O)N[C@@H](CCCCNC(C)=O)C(=O)N[C@@H](CC(N)=O)C(=O)N[C@@H](Cc2c[nH]cn2)C(=O)N(C)[C@H](Cc2ccc(O)cc2)C(N)=O)NC1=O` [compound 8, MeCO-Pen(3)-N-T-7MeW-K(Ac)-Pen(3)-AEF-2Nal-aMeK-K(Ac)-N-H-NMeDTyr-CONH2] (Ac-[Pen]NT[Trp(7-Me)]K(Ac)[Pen][AEF][2Nal][αMeK]K(Ac)NH[dNMeY]-NH2; disulfide 1-6 (inferred)), with 169 A^2; and `CC(=O)NCCCC[C@@H]1NC(=O)[C@H](Cc2c[nH]c3c(C)cccc23)NC(=O)[C@H]([C@@H](C)O)NC(=O)[C@H](CC(N)=O)NC(=O)[C@@H](NC(=O)[C@@H](CCCNC(=N)N)NC(C)=O)C(C)(C)SSC(C)(C)[C@@H](C(=O)N[C@@H](Cc2ccc(OCCN)cc2)C(=O)N[C@@H](Cc2ccc3ccccc3c2)C(=O)N[C@@](C)(CCCCN)C(=O)N[C@@H](CCC(=O)O)C(=O)N[C@@H](CC(N)=O)C(=O)N[C@@H](Cc2c[nH]cn2)C(=O)N(C)[C@H](Cc2ccc(O)cc2)C(N)=O)NC1=O` [compound 9, MeCO-r-Pen(3)-N-T-7MeW-K(Ac)-Pen(3)-AEF-2Nal-aMeK-E-N-H-NMeDTyr-CONH2] (Ac-[dR][Pen]NT[Trp(7-Me)]K(Ac)[Pen][AEF][2Nal][αMeK]ENH[dNMeY]-NH2; disulfide 2-7), with 187 A^2.
Take `CC(=O)NCCCC[C@@H]1NC(=O)[C@H](Cc2c[nH]c3c(C)cccc23)NC(=O)[C@H]([C@@H](C)O)NC(=O)[C@H](CC(N)=O)NC(=O)[C@@H](NC(C)=O)C(C)(C)SSC(C)(C)[C@@H](C(=O)N[C@@H](Cc2ccc(OCCN)cc2)C(=O)N[C@@H](Cc2ccc3ccccc3c2)C(=O)N[C@@](C)(CCCCN)C(=O)N[C@@H](CCCCNC(C)=O)C(=O)N[C@@H](CC(N)=O)C(=O)N[C@@H](CC(N)=O)C(=O)N(C)[C@H](Cc2ccc(O)cc2)C(N)=O)NC1=O` [compound 13, MeCO-Pen(3)-N-T-7MeW-K(Ac)-Pen(3)-AEF-2Nal-aMeK-K(Ac)-N-N-NMeDTyr-CONH2] (Ac-[Pen]NT[Trp(7-Me)]K(Ac)[Pen][AEF][2Nal][αMeK]K(Ac)NN[dNMeY]-NH2; disulfide 1-6): the EPSA came out at 174 A^2.
